IC50 and solubility data for 1 compound are collected here from US9518041B2, “(+)-5-(3,4-difluorophenyl)-5-[(3-methyl-2-oxopyridin-1(2H)-yl)methyl]imidazolidine-2,4-dione and drug containing same” (KAKEN PHARMACEUTICAL CO., LTD., priority 2013, dated 2016).

The structures appear in SMILES notation.

One data set addresses T1, TACE (Homo sapiens, UniProt P78536).
T1 construct: made in house; host or cells: mammalian cells or insect cells
In words: TACE inhibition test (in vitro), fluorescent synthetic substrate. The class given is biochemical. To be noted: 37° C., 1.5 hours, read-out: TACE inhibitory activity, IC50 value. As for the experimental part: The nucleotide sequence of TACE has been reported by Moss et al. (Moss, M. L. et al., Nature 1997, 385, 733-736). Accordingly, the cDNA of TACE was obtained according to the prescribed method from THP-1 cells or the like, and then incorporated the cDNA into an expression vector. Next, this vector was transformed into mammalian cells or insect cells, and TACE expression was obtained. […]
Namely, 90 μL of an enzyme solution prepared with an assay buffer A (50 mM tris-hydrochloric acid buffer (pH 7.5) including 200 mM sodium chloride, 5 mM calcium chloride, 10 μM zinc sulfate, and 2 mg/mL bovine serum albumin) and 90 μL of a fluorescent synthetic substrate prepared with an assay buffer B (50 mM tris-hydrochloric acid buffer (pH 7.5) including 200 mM sodium chloride, 5 mM calcium chloride, 10 μM zinc sulfate, and 0.05% PLURONIC F-68) were mixed together, and reacted at 37° C. for 1.5 hours. Enzyme activity was then determined by measuring with a fluorescence intensity meter (Labsystems, Fluoroskan Ascent) at an excitation wavelength of 355 nm and a measurement wavelength of 460 nm. […]

A further data set addresses T2, human MMP-1 (Homo sapiens, UniProt P03956).
T2 construct: purchased Calbiochem 444208
T2 sequence (P03956 100-469): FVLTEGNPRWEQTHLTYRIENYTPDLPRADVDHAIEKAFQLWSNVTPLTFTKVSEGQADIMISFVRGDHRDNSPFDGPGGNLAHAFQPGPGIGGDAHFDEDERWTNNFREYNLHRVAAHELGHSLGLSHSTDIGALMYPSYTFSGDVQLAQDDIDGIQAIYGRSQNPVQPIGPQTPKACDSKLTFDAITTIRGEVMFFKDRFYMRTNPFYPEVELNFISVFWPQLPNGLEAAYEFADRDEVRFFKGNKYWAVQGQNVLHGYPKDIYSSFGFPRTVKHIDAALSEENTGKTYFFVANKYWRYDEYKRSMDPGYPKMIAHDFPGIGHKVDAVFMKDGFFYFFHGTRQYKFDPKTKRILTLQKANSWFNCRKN
In words: MMP-1 inhibition test. The class given is biochemical. To be noted: read-out: Inhibitory activity (IC50, nM) MMP-1. How it is done: (§1) MMP inhibition tests can be carried out, for example, using a fluorescent synthetic substrate based on the methods described in Bickett et al. (D. Mark Bickett et al., Anal. Biochem., 1993, 212, 58-64) and Nagase et al. (H. Nagase et al., J. Biol. Chem., 1994, 269, 20952-20957). The method for each MMP inhibition test is shown below.
180 μL (100 ng) of human MMP-1 (Calbiochem #444208) was mixed with 20 μL of 10 mM p-amino phenyl mercuric acetate (APMA), and activated by reacting at 37° C. for 1 hour. 20 μL of the resultant enzyme solution was diluted to 90 μL with an assay buffer A. The mixture was added to 90 μL of a 20 μM fluorescent substrate (Dnp-Pro-Cha(β-cyclohexylalanyl)-Gly-Cys(Me)-His-Ala-Lys(Nma)-NH2) (SEQ ID NO: 2) prepared with an assay buffer B, and reacted at 37° C. for 5 hours. Enzyme activity was then determined by measuring with a fluorescence intensity meter (Labsystems, Fluoroskan Ascent) at an excitation wavelength of 355 nm and a measurement wavelength of 460 nm.
(§2) From the enzyme activity in the presence or the absence of the test substance, the inhibition rate was determined, and the 50% inhibitiory concentration (IC50) of the test substance was calculated.

The target of the next data set is T3, human MMP-3 (Homo sapiens, UniProt P08254).
T3 construct: purchased Calbiochem 444217
Description: MMP-3 inhibition test. The class given is biochemical. To be noted: read-out: Inhibitory activity (IC50, nM) MMP-3. How it is done:
as §1
90 μL (1.5 ng) of human MMP-3 (Calbiochem #444217) prepared with an assay buffer A was added to 90 μL of a 20 μM fluorescent substrate NFF-3 (MOCAc((7-methoxycoumarin-4-yl)acetyl)-Arg-Pro-Lys-Pro-Val-Glu-Nva-Trp-Arg-Lys(Dnp)-NH2, Peptide Institute Inc., #3168-v) (SEQ ID NO: 4) prepared with an assay buffer B, and reacted at 37° C. for 4 hours. Enzyme activity was then determined by measuring with a fluorescence intensity meter (Labsystems, Fluoroskan Ascent) at an excitation wavelength of 320 nm and a measurement wavelength of 405 nm.
as §2

The next data set has as its target T4, human MMP-8 (Homo sapiens, UniProt P22894).
T4 construct: purchased Calbiochem 444229
Description: MMP-8 inhibition test. The class given is biochemical. To be noted: read-out: Inhibitory activity (IC50, nM) MMP-8. How it is done:
as §1
90 μL (29 ng) of human MMP-8 (Calbiochem #444229) was mixed with 10 μL of 10 mM APMA, and activated by reacting at 37° C. for 1 hour. 10 μL of the resultant enzyme solution was diluted to 90 μL with an assay buffer A. The mixture was added to 90 μL of a 20 μM fluorescent substrate (MOCAc-Pro-Leu-Gly-Leu-A2pr(Dnp)-Ala-Arg-NH2, Peptide Institute Inc., #3163-v) (SEQ ID NO: 3) prepared with an assay buffer B, and reacted at 37° C. for 5 hours. Enzyme activity was then determined by measuring with a fluorescence intensity meter (Labsystems, Fluoroskan Ascent) at an excitation wavelength of 320 nm and a measurement wavelength of 405 nm.
as §2

A short description of data set [1]: Solubility test in organic solvents (propylene glycol, butylene glycol). The class given is physicochemical. To be noted: organic solvent or mixture, thermodynamic from solid. As for the experimental part:
Under room temperature conditions, in a 0.5 mL polypropylene tube, (+)-5-(3,4-difluorophenyl)-5-[(3-methyl-2-oxopyridin-1(2H)-yl)methyl]imidazolidine-2,4-dione and (±)-5-(3,4-difluorophenyl)-5-[(3-methyl-2-oxopyridin-1(2H)-yl)methyl]imidazolidine-2,4-dione measured in advance for a suitable amount were prepared, respectively. In each tube, solvent (Propylene glycol (PG) or butylene glycol (BG)) was added with various amounts, e.g. 10 times, 20 times or 100 times amount of the test compound, and stirred with a vortex mixer. With a table ultrasonic washer set at 37° C., ultrasonication treatment was given for 10 minutes; after warming for an hour in a thermostat chamber, each were kept standing for 24 hours at room temperature. The test solutions were observed by sight to evaluate the states in accordance with the determination criterion given below.
Determination criterion consisted of the following two categories:
“Soluble”: Test compound dissolved; no undissolved substances confirmed by visual observation.
“Insoluble”: Test compound remains undissolved; undissolved substances confirmed by visual observation.

T1 sequence (P78536 215-824): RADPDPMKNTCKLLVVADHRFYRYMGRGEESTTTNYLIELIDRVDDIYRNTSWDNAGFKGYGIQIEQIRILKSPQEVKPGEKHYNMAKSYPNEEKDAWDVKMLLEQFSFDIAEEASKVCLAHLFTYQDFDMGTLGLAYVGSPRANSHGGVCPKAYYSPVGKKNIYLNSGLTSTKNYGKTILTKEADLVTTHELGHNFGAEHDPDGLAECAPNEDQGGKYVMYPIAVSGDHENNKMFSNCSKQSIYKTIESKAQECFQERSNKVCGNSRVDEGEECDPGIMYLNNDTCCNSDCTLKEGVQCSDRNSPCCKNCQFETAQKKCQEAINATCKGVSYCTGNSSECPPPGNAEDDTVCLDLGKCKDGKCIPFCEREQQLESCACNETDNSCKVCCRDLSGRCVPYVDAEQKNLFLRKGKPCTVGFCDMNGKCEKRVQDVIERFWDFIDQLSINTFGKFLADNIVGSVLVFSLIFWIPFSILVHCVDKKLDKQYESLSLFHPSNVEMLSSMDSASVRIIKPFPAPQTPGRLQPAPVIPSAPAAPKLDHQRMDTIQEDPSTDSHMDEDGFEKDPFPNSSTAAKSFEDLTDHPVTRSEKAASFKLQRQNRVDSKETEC
T3 sequence (P08254 100-272 limits assumed): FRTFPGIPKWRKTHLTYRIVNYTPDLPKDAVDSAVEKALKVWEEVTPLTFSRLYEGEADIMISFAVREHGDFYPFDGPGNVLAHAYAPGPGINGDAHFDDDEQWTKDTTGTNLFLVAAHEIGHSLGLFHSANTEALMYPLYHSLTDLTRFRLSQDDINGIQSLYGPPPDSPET
T4 sequence (P22894 101-467): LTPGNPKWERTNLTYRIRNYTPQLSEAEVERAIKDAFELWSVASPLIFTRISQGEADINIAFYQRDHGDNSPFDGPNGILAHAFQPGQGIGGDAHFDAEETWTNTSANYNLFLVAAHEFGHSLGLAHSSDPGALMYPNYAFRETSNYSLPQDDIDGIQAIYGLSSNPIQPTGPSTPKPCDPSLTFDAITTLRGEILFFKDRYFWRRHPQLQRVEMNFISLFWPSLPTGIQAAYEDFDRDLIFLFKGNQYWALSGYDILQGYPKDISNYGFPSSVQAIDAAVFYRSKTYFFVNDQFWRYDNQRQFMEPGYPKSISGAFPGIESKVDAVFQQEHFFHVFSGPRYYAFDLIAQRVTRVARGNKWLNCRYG

A word on the IC50: it is the concentration needed to halve the response being measured. As a reminder, the solubility is the concentration that dissolves in the medium under given conditions. Turning to `Cc1cccn(CC2(c3ccc(F)c(F)c3)NC(=O)NC2=O)c1=O` (single isomer, unassigned; (+)) [(+)-5-(3,4-difluorophenyl)-5-[(3-methyl-2-oxopyridin-1(2H)-yl)methyl]imidazolidine-2,4-dione], the IC50 on TACE was no more than 0.1 µM; at human MMP-1, greater than 10000 nM; on human MMP-3, greater than 10000 nM; at human MMP-8 it was greater than 10000 nM. Besides, the solubility at 24 h in data set [1] was greater than 10000 µg/mL.
